Data from patent EP1944295A1, “Non-racemic mixtures of (R)-N-piperidinyl-5-(4-chlorophenyl)1-(2,4-dichlorophenyl)-4,5-dihydro-1H-pyrazole-3-carboxamide and (S)-N-piperidinyl-5-(4-chlorophenyl)-1-(2,4-dichlorophenyl)-4,5-dihydro-1H-pyrazole-3-carboxamide” (Laboratorios del Dr. Esteve S.A., priority 2007, dated 2008).
Read-outs that look alike come from different tables or passages of the source.

Legend:
Herg channel = Herg channel (Homo sapiens, UniProt Q12809); assay: Herg channel affinity (statement only, no method); type: binding; conditions: low risk of prolongation of the QT-interval expected
Chain of Herg channel (Q12809 whole entry): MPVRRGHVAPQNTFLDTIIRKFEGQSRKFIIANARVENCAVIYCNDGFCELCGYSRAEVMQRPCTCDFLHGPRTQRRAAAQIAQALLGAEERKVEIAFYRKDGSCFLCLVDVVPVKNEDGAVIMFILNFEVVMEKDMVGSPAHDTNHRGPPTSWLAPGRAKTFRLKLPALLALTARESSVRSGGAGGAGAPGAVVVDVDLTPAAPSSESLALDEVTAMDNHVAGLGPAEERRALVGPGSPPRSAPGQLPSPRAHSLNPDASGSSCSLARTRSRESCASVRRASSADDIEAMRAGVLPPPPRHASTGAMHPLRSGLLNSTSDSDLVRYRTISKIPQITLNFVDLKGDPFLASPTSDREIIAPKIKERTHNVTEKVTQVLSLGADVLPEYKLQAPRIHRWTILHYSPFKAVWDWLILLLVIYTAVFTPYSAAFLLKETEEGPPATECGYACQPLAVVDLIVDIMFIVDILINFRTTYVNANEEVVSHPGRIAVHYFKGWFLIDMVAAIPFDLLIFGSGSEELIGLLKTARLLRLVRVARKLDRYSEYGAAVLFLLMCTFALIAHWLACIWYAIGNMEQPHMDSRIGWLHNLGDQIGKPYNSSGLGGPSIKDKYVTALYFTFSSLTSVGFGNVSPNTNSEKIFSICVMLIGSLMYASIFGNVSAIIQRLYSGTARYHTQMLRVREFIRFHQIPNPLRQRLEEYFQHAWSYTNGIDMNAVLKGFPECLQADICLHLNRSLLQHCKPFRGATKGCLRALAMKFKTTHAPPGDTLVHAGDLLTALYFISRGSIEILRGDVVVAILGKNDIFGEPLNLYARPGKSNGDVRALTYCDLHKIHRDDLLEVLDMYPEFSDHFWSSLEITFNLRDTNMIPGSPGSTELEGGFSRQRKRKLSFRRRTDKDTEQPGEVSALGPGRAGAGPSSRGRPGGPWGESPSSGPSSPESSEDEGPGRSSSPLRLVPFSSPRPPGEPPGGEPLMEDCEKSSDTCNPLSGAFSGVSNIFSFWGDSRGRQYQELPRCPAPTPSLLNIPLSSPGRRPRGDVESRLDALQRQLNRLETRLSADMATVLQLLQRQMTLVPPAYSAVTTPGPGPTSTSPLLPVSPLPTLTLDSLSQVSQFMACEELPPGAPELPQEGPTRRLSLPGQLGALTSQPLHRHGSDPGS

rat CB1 receptors = target: T1, rat CB1 receptors (Rattus norvegicus, UniProt P20272); assay: Binding affinity to CB1 receptor, competitive binding with [3H]-CP 55,940 in rat cerebellum membranes
T1 construct: cerebella from male Wistar rats (250-300g) were carefully dissected on ice and homogenates were prepared; from tissue; host or cells: rat cerebellum membranes (male Wistar rats)
T1 sequence (P20272 whole entry): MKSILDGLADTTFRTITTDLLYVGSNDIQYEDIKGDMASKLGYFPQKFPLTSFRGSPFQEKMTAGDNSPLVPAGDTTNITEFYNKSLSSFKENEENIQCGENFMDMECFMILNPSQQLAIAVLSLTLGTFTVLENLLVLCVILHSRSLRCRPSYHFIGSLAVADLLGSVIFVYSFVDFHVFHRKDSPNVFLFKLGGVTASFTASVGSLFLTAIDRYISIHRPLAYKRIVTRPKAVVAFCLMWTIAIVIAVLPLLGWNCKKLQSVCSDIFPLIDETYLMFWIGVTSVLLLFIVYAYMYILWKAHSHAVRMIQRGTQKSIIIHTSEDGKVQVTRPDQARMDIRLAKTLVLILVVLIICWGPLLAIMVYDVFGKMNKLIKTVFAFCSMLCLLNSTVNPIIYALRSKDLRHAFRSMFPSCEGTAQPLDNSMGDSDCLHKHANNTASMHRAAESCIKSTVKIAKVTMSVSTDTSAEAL
Experimental: Binding affinity to CB1 receptor was evaluated according to the method of Govaerts et al (2004) with the following modifications. Briefly, cerebella from male Wistar rats (250-300g) were carefully dissected on ice and homogenates were prepared in cold 50 mM Tris-HCl, 5 mM MgCl2, 1 mM EDTA, 0.25 M sucrose, pH 7.4 with a Potter-Heljheim homogeniser and the suspension was centrifuged at 1,000 x g for 5 minutes. The supernatants were collected and centrifuged at 50,000 x g for 15 min. The resulting pellets were resuspended in Tris-HCl buffer without sucrose, homogenized and incubated for 15 min at 37°C in an orbital shaker bath and centrifuged again at 50,000 x g for 15 min. Pellets were weighed, resuspended in Tris-HCl buffer without sucrose, homogenized with an Ultraturrax homogeniser at 13,500 rpm for 3 x 5 seconds and aliquoted in 0.9 ml volumes in Eppendorf tubes. Aliquots were centrifuged at 20,800 x g for 5 minutes, supernatants discarded and pellets were frozen at -80°C until use. Total protein concentration was determined using a Bio-Rad commercial assay base on the Lowry method. Competitive binding experiments were performed in presence of 1 nM [^3H]-CP 55,940 in siliconized glass tubes containing 100 µg protein/tube resuspended in 1 ml final volume of 50 mM Tris-HCl, 5 mM MgCl2, 1 mM EDTA, 0.5% (w/v) bovine serum albumin, pH 7.4. Competitors were present at various concentrations and the non-specific binding was determined in the presence of 10 µM HU-210. After 1 hour incubation at 30°C, the suspension was rapidly filtered through 0.5% PEI pre-treated GF/B fiber filters on a 96-well harvester and washed 3 times with 3ml ice-cold binding buffer without bovine serum albumin. Radioactivity on filters was measured with Wallac Winspectral 1414 counter by liquid scintillation in 6 ml Ecoscint H (National Diagnostics, U.K.). Assays were made in triplicate.
Binding data were analyzed by non-linear regression with the software GraphPad Prism Version 3.03.

[1] = Plasma glycerol and triacylglycerol assay; type: in vivo, female Wistar rats; conditions: obese rats, vs vehicle; for reduction of plasma glycerol levels / reduction of plasma triacylglycerol concentrations: 30 mg/kg po once daily for 28 days
Experimental: (§1) The experiment was performed on female Wistar rats (originally in the weight range 250-300 g). The rats were housed in pairs in polypropylene cages with solid floors and sawdust bedding at a temperature of 21±4°C and 55±20% humidity. Animals were maintained on a reverse phase light-dark cycle (lights off for 8 h from 09.30-17.30 h) during which time the room was illuminated by red light. Animals had free access to powdered high fat diet (VRF1 plus 20% lard), ground chocolate, ground peanuts and tap water at all times. The three different diets were contained in separate glass feeding jars with aluminum lids with a 3-4 cm hole cut in it to allow access to the food. Animals were housed in pairs for twelve weeks for the induction of obesity. Animals were then housed singly in polypropylene cages with wire grid floors to enable the food intake of each rat to be recorded. Polypropylene trays with cage pads were placed beneath each cage to detect any food spillage. Animals were accustomed to these new conditions (individual housing and the wire-grid floor cages) for at least 14 days before the start of the baseline readings.
(§2) Approximately a week before the start of the study, animals were weighed (to the nearest 0.1 g using an electronic top-pan balance) and allocated into […], each containing 9-10 animals. Following a 7 day baseline run-in period, during which the animals were dosed by the appropriate route (eg orally) once a day with vehicle (0.5% hydroxy-propyl-methylcellulose [HPMC]; 1 ml/kg) or the test drug, ie COMPOUND A (10 and 30 mg/kg po) and COMPOUND B (10 and 30 mg/kg po) once daily for 28 days.
Terminal blood samples via cardiac puncture were taken from the animals immediately after death into Sarstedt 4.5 ml lithium-heparin tubes (Cat No. 32.331). Tubes were then centrifuged at 1,500 g for 5 minutes at 4°C and the plasma removed and immediately frozen on dry ice (as 3 aliquots per sample in sealed Eppendorf tubes). Plasma samples were stored at -75°C until required for analysis. All determinations were performed on plasma samples that had been thawed only once.
Plasma triacylglycerol was determined by modification of a discrete assay kit (Sigma Triglyceride determination kit, Cat No. TR0100) to a 96-well format. The kit actually determines liberated glycerol following enzymic hydrolysis of triacylglycerol to free fatty acids and glycerol (1 mole glycerol per mole of triacylglycerol). For this reason, correction for the glycerol concentration originally present in the plasma is required. Plasma samples were, therefore, assayed in the absence (free plasma glycerol) or presence (total triacylglycerol) of lipoprotein lipase. Subtraction of free glycerol from total triacylglycerol concentration then derives the true triacylglycerol concentration.
A 2.5 mg/ml triolein equivalent glycerol standard was obtained from Sigma. The supplied Sigma mM conversion factor for this batch was 1.13 (ie 2.83 mM glycerol). A 10 mg/ml glycerol stock solution was prepared in saline and then diluted in saline to create a series of standard concentrations from 0.218 to 4.34 mM. Standards and plasma samples (undiluted) were pipetted into the 96-well plates as 10 µl additions in duplicate. Assay plates and reagents were preheated at 37°C and the reaction started by adding 200 µl of either the glycerol or total triacylglycerol reagent (reconstituted as per manufacturer's protocol) followed by incubation at 37°C for 5 minutes after which optical density at 540 nm was determined using a Molecular Devices VERSAmax tunable microplate reader. Optical density readings were then transferred to GraphPad Prism and unknown values extrapolated from a linear regression fit to the standard curve. The assay was linear up to the highest glycerol standard employed (4.34 mM). Subtraction of the glycerol concentration in the plasma samples from the total triacylglycerol concentration derived the true triacylglycerol concentration.

[2] = Feeding study: body weight of obese rats with access to highly palatable cafeteria diet; type: in vivo, female Wistar rats; conditions: after 28 days of treatment, dietary-induced obese rats
Experimental: as §1, §2
Food intake and body weight were measured once daily. Variations in body weight and energy levels of the different types of food were accounted for by expressing the food intake results in terms of kJ/kg rat weight.
Statistical comparisons between the body weights and daily food intakes of the different treatment groups have been made by analysis of covariance followed by Dunnett's test to compare each treatment group with the vehicle-treated controls. For the body weight data (body weights each day), the weights of the animals on Day 1 (ie immediately before the first drug treatment) were used as the covariate. Thus, means were adjusted for differences in body weight between the groups on Day 1 and standard errors of the mean (SEM) were calculated from the residuals of the statistical model. All mean body weight values on Day 1 are identical (and SEM are therefore zero) because the analysis of covariance adjusts them all to equal the 'grand mean' of the values of this day.

Plasma NEFA assay = type: in vivo, female Wistar rats; conditions: 30 mg/kg po once daily for 28 days, obese rats
Experimental: as §1, with “Animals were housed in pairs for twelve weeks for the induction of obesity.” left out, “Polypropylene trays with cage pads were placed beneath each cage to detect any food spillage.” left out, “readings. […]” for “readings.”
Non-esterified (or free) fatty acids (NEFA) were determined by modification of a commercial clinical analyser assay kit (Wako NEFA C ACS-ACOD method) to a 96-well format. […] After exactly 10 minutes, 150 µl of reagent B was added and the plate incubated for a further 10 minutes after which optical density at 540 nm was determined using a Molecular Devices VERSAmax tunable microplate reader. […]

[3] = Determination of carcass fat content (Soxhlet); type: in vivo, female Wistar rats; conditions: obese rats, g per rat
Experimental: as §1, with “Polypropylene trays with cage pads were placed beneath each cage to detect any food spillage.” left out, “readings. […]” for “readings.”
Percentage fat in the freeze-dried sample was calculated as follows: % fat = [100×(final cup weight-initial cup weight)]/sample weight [formula]
Percentage fat in the original sample was calculated using the % water as follows: % fat in original sample = % fat × [(100-% water)/100] […]

Plasma leptin assay = type: in vivo, female Wistar rats; conditions: obese rats
Experimental: as §1, with “Polypropylene trays with cage pads were placed beneath each cage to detect any food spillage.” left out, “readings. […]” for “readings.”
Plasma leptin concentration was determined using Assay Designs rat leptin enzyme immunometric assay kits (Cat No. 900-015) according to the manufacturer's regular protocol. […] Optical density at 450 nm was determined using a Molecular Devices VERSAmax tunable microplate reader and readings transferred to GraphPad Prism. […]

[4] = 1 nM [3H]-CP 55,940, read-out: IC50
[5] = 10 mg/kg po once daily for 28 days
[6] = 30 mg/kg po once daily for 28 days

SMILES | Herg channel affinity (Herg channel) | IC50 (rat CB1 receptors; [4]) [nM] | IC50 (rat CB1 receptors; 1 nM [3H]-CP 55,940, read-out: pIC50 (converted)) [nM] | effect on plasma glycerol levels [1, 5] | effect on plasma triacylglycerol concentrations [1, 5] | reduction of plasma glycerol levels [1] [%] | reduction of plasma triacylglycerol concentrations [1] [%] | % reduction of body weight compared to the control group on Day 29 ([2]; 10 mg/kg po once daily) [%] | % reduction of body weight compared to the control group on Day 29 ([2]; 30 mg/kg po once daily) [%] | decrease of plasma NEFA levels compared to the vehicle-treated control group (Plasma NEFA assay) [%] | decrease in absolute body fat compared to the vehicle-treated control group [3, 5] [g] | decrease in absolute body fat compared to the vehicle-treated control group [3, 6] [g] | decrease of plasma leptin levels compared to the vehicle-treated control group (Plasma leptin assay; [5]) [%] | decrease of plasma leptin levels compared to the vehicle-treated control group (Plasma leptin assay; [6]) [%]
O=C(NN1CCCCC1)C1=NN(c2ccc(Cl)cc2Cl)[C@@H](c2ccc(Cl)cc2)C1 [Compound A, (R)-N-piperidinyl-5-(4-chlorophenyl)-1-(2,4-dichlorophenyl)-4,5-dihydro-1H-pyrazole-3-carboxamide] | relatively weak | 16.1 | 21.9 | no significant effect | no significant effect | 33.6 | 42 | 12.0 | 19.0 | – | – | – | – | –
O=C(NN1CCCCC1)C1=NN(c2ccc(Cl)cc2Cl)[C@H](c2ccc(Cl)cc2)C1 [Compound B, (S)-N-piperidinyl-5-(4-chlorophenyl)-1-(2,4-dichlorophenyl)-4,5-dihydro-1H-pyrazole-3-carboxamide] | – | 813 | – | – | – | 38.9 | 52.1 | 4.0 | 7.1 | 24.4 | 26.2 | 11.1 | 13.7 | 26.2
